The experiment has as its target T1, hP2X7R (Homo sapiens, UniProt Q99572).
T1 sequence (Q99572 1-595): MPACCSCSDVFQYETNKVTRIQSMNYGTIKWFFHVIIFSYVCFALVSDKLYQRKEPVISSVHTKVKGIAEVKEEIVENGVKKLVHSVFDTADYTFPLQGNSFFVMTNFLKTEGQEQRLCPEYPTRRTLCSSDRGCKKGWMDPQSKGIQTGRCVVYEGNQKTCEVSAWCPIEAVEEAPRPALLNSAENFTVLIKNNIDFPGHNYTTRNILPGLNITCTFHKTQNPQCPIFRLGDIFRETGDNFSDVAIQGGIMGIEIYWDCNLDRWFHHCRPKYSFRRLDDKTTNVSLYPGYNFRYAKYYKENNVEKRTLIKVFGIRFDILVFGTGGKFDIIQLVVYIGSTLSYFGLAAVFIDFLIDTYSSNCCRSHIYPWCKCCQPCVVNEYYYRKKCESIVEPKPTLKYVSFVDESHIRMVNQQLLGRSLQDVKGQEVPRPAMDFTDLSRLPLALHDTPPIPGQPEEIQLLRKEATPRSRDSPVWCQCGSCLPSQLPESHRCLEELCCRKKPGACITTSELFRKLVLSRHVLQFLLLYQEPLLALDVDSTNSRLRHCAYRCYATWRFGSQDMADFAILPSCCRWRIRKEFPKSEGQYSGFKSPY
In words: Ethidium bromide accumulation in hP2X7R-expressing HEK293 cells. More on the design: expressed in transfected cells. Particulars: for ΔΔGexp: relative to UB-ALT-P30, from experimental pIC50 values, T = 298 K; for MAX100 (% of maximum accumulation, replicates 1-3): single replicates. Type of experiment: cell-based. As to the method: Human P2X7R-expressing HEK293 cells were cultured in a humidified atmosphere of 5% CO2 at 37 °C in Dulbecco’s Modification of Eagle’s Medium (DMEM; Corning) supplemented with 10% (v/v) fetal bovine serum (Corning) and 1% (v/v) antibiotic–antimycotic (Gibco)[75]. To perform the assay, the DMEM was removed, and the HEK293 cells were washed with 3 mL of 1X DPBS (Dulbecco’s Phosphate-Buffered Saline; Corning). After the removal of DPBS solution, the cells were detached from the dish with 1 mL of trypsin/EDTA (Gibco), and the cells were collected by centrifugation. The cells (density of 2.25 × 10^7) were re-suspended in 4-(2-hydroxyethyl)-1-piperazineethanesulfonic acid (HEPES)-buffered salt solution consisting of 140 mM potassium chloride, 1 mM ethylene diamine tetraacetic acid (EDTA), 5 mM glucose, 20 mM HEPES, and 0.1 mM ethidium bromide (pH 7.4). The vehicles or appropriate range of concentrations of compounds (10 μL, pre-diluted in 10% (v/v) DMSO in DW from 10 mM stock) were added to each well of 96-well black plate (Corning), and 80 μL of the cell suspension was subsequently added to each well. BzATP (10 μL, pre-diluted in DW from 10 mM stock) was then added, and the final assay volume was maintained at 100 μL. After the incubation in 5% CO2 at 37 °C for 2 h, the ethidium dye uptake was detected by measuring the fluorescence (excitation wavelength of 530 nm and emission wavelength of 590 nm) of each well using a CHAMELEON™ Multi-Technology Plate Reader. The antagonistic activities of compounds are expressed as the percentages relative to the maximum accumulation of ethidium bromide observed in the control group with the stimulation of the hP2X7R by an agonist, BzATP. The IC50 values of compounds as antagonists were calculated using nonlinear regression analysis using OriginPro 9.1 software.

[1] abbreviates: BzATP 6 μM, antagonist concentration 1 (unit not given).
Where [2] appears, read: BzATP 6 μM, antagonist concentration 10 (unit not given).
Where [3] appears, read: BzATP 6 μM, antagonist concentration 50 (unit not given).
[4] abbreviates: BzATP 6 μM, antagonist concentration 100 (unit not given).
Where [5] appears, read: BzATP 6 μM, antagonist concentration 500 (unit not given).
The mark [6] stands for this setting: BzATP 6 μM, antagonist concentration 1000 (unit not given).
The mark [7] stands for this setting: BzATP 7 μM, antagonist concentration 0.1 (unit not given).
Setting [8] is: BzATP 7 μM, antagonist concentration 0.5 (unit not given).
The mark [9] stands for this setting: BzATP 7 μM, antagonist concentration 1 (unit not given).
[10] abbreviates: BzATP 7 μM, antagonist concentration 5 (unit not given).
Where [11] appears, read: BzATP 7 μM, antagonist concentration 10 (unit not given).
The mark [12] stands for this setting: BzATP 7 μM, antagonist concentration 100 (unit not given).

Where “and” joins values, the source holds several entries; their conditions need not be identical. Equal values may be shown once.

In turn, `O=C(NNc1ccccc1Cl)C12CC3CC(CC(C3)C1)C2` [UB-ALT-P30, reference compound] had a ΔΔGexp of 0 kcal/mol. Under setting [1], the “mean % of maximum accumulation” value was determined as 94.223%; the “MAX100 (% of maximum accumulation, replicates 1-3)” value is 87.3374 and 88.4652 and 106.867. In addition, under setting [2], the “mean % of maximum accumulation” value was found to be 86.3844%; the “MAX100 (% of maximum accumulation, replicates 1-3)” value was 79.5317 and 91.4204 and 88.2012. Further, under setting [3], the “mean % of maximum accumulation” value amounted to 53.8482%; the “MAX100 (% of maximum accumulation, replicates 1-3)” value is 46.9211 and 58.6273 and 55.9961. Under setting [4], the “mean % of maximum accumulation” value came to 26.7232%; the “MAX100 (% of maximum accumulation, replicates 1-3)” value was 22.0295 and 25.5481 and 32.5919. Under setting [5], the “mean % of maximum accumulation” value came out at 9.424%; the “MAX100 (% of maximum accumulation, replicates 1-3)” value was 9.107 and 5.6244 and 13.5397. In addition, under setting [6], the “mean % of maximum accumulation” value turned out to be 9.144%; the “MAX100 (% of maximum accumulation, replicates 1-3)” value is 6.418 and 4.862 and 16.1509. This compound also registered an IC50 (hP2X7R, ethidium bromide accumulation, mean ± SD, triplicate) of 47 ± 4 nM.

Compound `CC12CC3CC1(C)C1(C)CC3(C(=O)NNc3ccccc3Cl)CC21C` [UB-MBX-46] gave a ΔΔGexp of -2.37 ± 0.32 kcal/mol. For the same compound, under setting [7], the “mean % of maximum accumulation” value worked out at 86.0633%; the “MAX100 (% of maximum accumulation, replicates 1-3)” value was 84.5638 and 89.1729 and 84.4531. Under setting [8], the “mean % of maximum accumulation” value was found to be 74.1428%; the “MAX100 (% of maximum accumulation, replicates 1-3)” value is 75.8389 and 73.3083 and 73.2812. Moreover, under setting [9], the “mean % of maximum accumulation” value is 59.2287%; the “MAX100 (% of maximum accumulation, replicates 1-3)” value was 53.915 and 63.4586 and 60.3125. Further, under setting [10], the “mean % of maximum accumulation” value was 27.1109%; the “MAX100 (% of maximum accumulation, replicates 1-3)” value was 28.9336 and 34.5865 and 17.8125. In addition, under setting [11], the “mean % of maximum accumulation” value turned out to be 10.5059%; the “MAX100 (% of maximum accumulation, replicates 1-3)” value was 10.962 and 9.774 and 10.7812. Under setting [12], the “mean % of maximum accumulation” value is recorded as 11.5505%; the “MAX100 (% of maximum accumulation, replicates 1-3)” value is 12.4534 and 11.7293 and 10.4688.

In general, IC50 refers to the point on the concentration scale where inhibition reaches its midpoint.
